Experimental data from patent US6605589B1, “Cathepsin inhibitors in cancer treatment” (Parker Hughes Institute, priority 2000, dated 2003).

Experiments:
Assay type in all cases: cell-based, human
BT-20 (breast cancer) [1] = test: Quantitative flow cytometric apoptosis detection assay (MC540/PI); settings: 0 to 100 μM, FIGS. 1-3
Protocol: (§1) Quantitative flow cytometric apoptosis detection assays were performed on BT-20 (breast cancer), PC-3 (prostate cancer), U373 (glioblastoma), SQ20B (squamous cell carcinoma), HeLa (cervix cancer), and DU145 (prostate cancer). Just prior to the assay, one mg/ml stock solutions of MC540 (Sigma, St. Louis, Mo.) and PI (Sigma, St. Louis, Mo.) were filtered through a 0.22 μm filter and stored at 4° C. in the dark. CATI-1 treated cell lines was harvested, and 1×10^6 cells suspended and stained with 5 μg/ml MC540 and 10 μg/ml propidium iodide (PI) (Uckun et al. (1996) Science, 273: 1096-1100) at 4° C. in the dark for 24 hours. Stained cells were analyzed with a FACStar Plus flow cytometer (Becton Dickinson, San Jose, Calif.) using the 488-nm excitation from an argon laser. MC540 and PI emissions were split with a 600-nm short pass diachronic mirror; a 575-nm band pass filter was placed in front of one photomultiplier tube to measure MC540 emission, and 635-nm band pass filter was used for PI emission. In each experiment approximately 10,000 cells were analyzed by FACS and the percentage of cells at early (MC540 fluorescence only) and advanced (dual MC540 plus PI fluorescence) stages of apoptosis obtained.

HeLa (cervix cancer) = test: as above; settings: 0 to 100 μM, FIGS. 1-3
Protocol: as §1

[2] = tested on: SQ20B (squamous cell carcinoma); test: as above; settings: 0 to 100 μM, FIGS. 1-3
Protocol: as §1

PC-3 (prostate cancer) = test: as above; settings: 0 to 100 μM, FIGS. 1-3
Protocol: as §1

DU145 (prostate cancer) = test: as above; settings: 0 to 100 μM, FIGS. 1-3
Protocol: as §1

U373 (glioblastoma) = test: as above; settings: 0 to 100 μM, FIGS. 1-3
Protocol: as §1

ALL-1 (pre-pre B ALL) = test: In vitro clonogenic assay; settings: for %, inhibition / Mean no, of colonies: 24 hours
Protocol: (§2) In vitro clonogenic assays were carried out to determine the cytotoxic activity of the cathepsin inhibitor I (CATI-1) (Z-Phe-Gly-NHO-Bz) against cancer cells. The cancer cell lines used in the assay were U373 (glioblastoma), BT-20 (breast cancer), SQ20B (squamous cell carcinoma), RS4;11 (pro-B ALL), ALL-1 (pre-pre-B ALL), KM-3, MOLT-3 (T-ALL), JURKAT (T-ALL), K-562 (CML), HL-60 (AML), DAUDI (NHL), RAMOS (NHL) and RAJI (NHL). Each cell line was treated under several concentrations of CATI-1 for 24 hours, washed with serum free medium and resuspended in clonogenic medium having 10% fetal bovine serum and 0.9% methylcellulose. Resuspended cells were plated in duplicate 35-mm Petri dishes at 10,000 to 20,000 cells per dish and cultured at 37° C. in a humidified 5% CO2 atmosphere for 5 to 7 days.
(§3) Images of colonies in each dish were taken by a digital camera (Princeton Instruments, Inc.) linked to a microscope (Nikon Diaphot 200). Colony numbers were determined using an inverted phase microscope and percent inhibition of colony formation determined using the formula:
(§4) % inhibition=(1−(colony number in test sample/colony number in control sample))×100.

SQ20B (neck cancer) = test: In vitro clonogenic assay; settings: 24 hours
Protocol: as §2, §3, §4

RS4;11 (pro-B ALL) = test: In vitro clonogenic assay; settings: for %, inhibition / Mean no, of colonies: 24 hours
Protocol: as §2, §3, §4

BT-20 (breast cancer) [3] = test: In vitro clonogenic assay; settings: 24 hours
Protocol: as §2, §3, §4

KM-3 (pre-B ALL) = test: In vitro clonogenic assay; settings: 24 hours
Protocol: as §2, §3, §4

RAJI (NHL) = test: In vitro clonogenic assay; settings: for %, inhibition / Mean no, of colonies: 24 hours
Protocol: as §2, §3, §4

MOLT-3 (T-ALL) = test: In vitro clonogenic assay; settings: CATI-1 10 uM, 24 hours
Protocol: as §2, §3, §4

[4] = read-out: IC50 (colony formation)

## O=C(CNC(=O)[C@H](Cc1ccccc1)NC(=O)OCc1ccccc1)NOC(=O)c1ccccc1 [CATI-1, Z-Phe-Gly-NHO-Bz]
BT-20 (breast cancer) [1]
  induction of apoptosis: induces apoptosis
HeLa (cervix cancer)
  induction of apoptosis: induces apoptosis
[2]
  induction of apoptosis: induces apoptosis
PC-3 (prostate cancer)
  induction of apoptosis: induces apoptosis
DU145 (prostate cancer)
  induction of apoptosis: induces apoptosis
U373 (glioblastoma)
  induction of apoptosis: induces apoptosis
ALL-1 (pre-pre B ALL); CATI-1 10 uM
  %, inhibition: 80.4%
  Mean no, of colonies: 338 (348, 328)
ALL-1 (pre-pre B ALL); CATI-1 20 uM
  %, inhibition: 99.6%
  Mean no, of colonies: 7 (6, 8)
ALL-1 (pre-pre B ALL); CATI-1 35 uM
  %, inhibition: 100%
  Mean no, of colonies: 0 (0, 0)
ALL-1 (pre-pre B ALL); [4]
  IC50: 6.2 µM
SQ20B (neck cancer); CATI-1 50 uM
  %, inhibition: 40%
  Mean no, of colonies: 1838 (1732, 1944)
SQ20B (neck cancer); CATI-1 100 uM
  %, inhibition: 90%
  Mean no, of colonies: 306 (280, 332)
RS4;11 (pro-B ALL); CATI-1 10 uM
  %, inhibition: 10.6%
  Mean no, of colonies: 2676 (2160, 3192)
RS4;11 (pro-B ALL); CATI-1 20 uM
  %, inhibition: 96.8%
  Mean no, of colonies: 96 (116, 76)
RS4;11 (pro-B ALL); CATI-1 35 uM
  %, inhibition: 100%
  Mean no, of colonies: 0 (0, 0)
RS4;11 (pro-B ALL); [4]
  IC50: 14.6 µM
BT-20 (breast cancer) [3]; CATI-1 50 uM
  %, inhibition: 95%
  Mean no, of colonies: 177 (154, 200)
BT-20 (breast cancer) [3]; CATI-1 100 uM
  %, inhibition: 100%
  Mean no, of colonies: 0
KM-3 (pre-B ALL); CATI-1 10 uM
  %, inhibition: 79.2%
  Mean no, of colonies: 578 (520, 636)
KM-3 (pre-B ALL); CATI-1 20 uM
  %, inhibition: 100%
  Mean no, of colonies: 0 (0, 0)
RAJI (NHL); CATI-1 10 uM
  %, inhibition: 86.5%
  Mean no, of colonies: 168 (124, 212)
RAJI (NHL); CATI-1 20 uM
  %, inhibition: 97.4%
  Mean no, of colonies: 32 (40, 24)
RAJI (NHL); CATI-1 35 uM
  %, inhibition: 100%
  Mean no, of colonies: 0 (0, 0)
RAJI (NHL); [4]
  IC50: 5.8 µM
MOLT-3 (T-ALL)
  %, inhibition: 90.8%
